The text below walks through data of paper PMC8068288, “Novel Thiol Containing Hybrid Antioxidant-Nitric Oxide Donor Small Molecules for Treatment of Glaucoma” (Antioxidants, 2021).

Data set [1] can be described thus: Superoxide anion radical scavenging assay (pyrogallol/WST-1) in buffer. The settings on record: for AUC0–2.5 h of % superoxide scavenging response: 1 mM compound, pyrogallol 1 mM; for earliest time of superoxide (O2−) radical scavenging: buffer solution and TM cells; for superoxide radicals scavenged: dose response 1-1000 µM; for AUC0-15 of % superoxide scavenging response: different concentrations 1-1000 µM, 15 minutes time point. Type of data set: biochemical. As to the method: (§1) The ROS scavenging ratio was determined using a chemical assay where WST-1 was used as superoxide scavenger produced by pyrogallol following a reported protocol. Briefly, the superoxide anion radical scavenging activity was determined spectrophotometrically by measuring the formation of WST-1 formazan at 450 nm. WST-1 (40 µL, 50 µM) was added to the compounds (or corresponding solution) in a final volume of 160 µL in 50 mM ammonium hydrogen carbonate buffer, 0.5 mM EDTA, pH 9.3. Reaction was launched by adding 40 µL 1 mM pyrogallol. The operation was based on the 96-well microplate, and measurement was performed at different time points under 37 °C by Cytation5 Microplate Reader. Baicalein (1 mM) was used as positive control. Compounds SA-2, SA-9, and SA-10 were used in concentrations ranging from 1 µM, 10 µM, 100 µM, and 1000 µM. The superoxide anion radical scavenging ratio % was calculated according to the following formula:Scavenging ratio (%) = A0 − (A1 − A2)/A0 × 100%
Background: Formazan colour is commonly taken as a measure of viable cells.

Data set [2] relates to NTM-5 cells. Description: Total nitrite release by Griess assay in NTM-5 cell supernatant. The following applies: for NO released in NTM-5 cell supernatants: 28 h at 37 °C; for start of NO release: buffer solution and TM cells. Type of data set: cell-based, human. As to the method:
(§2) The total nitrite released from the compounds in buffer and in cell supernatant were measured by Griess assay as reported by us previously. In brief, compounds (SA-2, SA-9, and SA-10) in buffer at different concentrations (1 mM, 500 µM, 250 µM 125 µM, 62.5 µM, 31.25 µM, and 15.625 µM) or supernatant collected from Human transformed trabecular meshwork (NTM-5) cells were added to a 96-well plate. 1% Sulphanilamide in 5% phosphoric acid and 0.1% N-1-napthylethylenediamine dihydrochloride (NED) were added to experimental samples sequentially at room temperature and away from light. SIN-1 was used as reference standard. UV Absorbances (Cytation 5) were measured at specific timepoints (0, 5 min, 10 min, 15 min, 30 min, 24 h, and 28 h) at 520 nm.
(§3) The experiments were repeated twice with four technical replicates.
A general note: The Griess reaction detects nitrite, a stable product of nitric oxide.

Data set [3] deals with NTM-5 cells. Description: Superoxide scavenging ratio in NTM-5 cell supernatant (pyrogallol assay), with or without TBHP. Type of data set: cell-based, human. The following applies: for AUC0-3h of superoxide scavenging ratio: NTM-5 cell supernatant, 18 h treatment, 0.1-1000 µM. How it is done:
as §1, with “100% […]” for “100%”
as §3
Figure 2 Superoxide scavenging ability of SA compounds in buffer and cells. (a) The % of superoxide scavenging response from 1 mM concentration of SA-2, SA-9, and SA-10 in pyrogallol (Pyr, 1 mM) induced superoxide induction assay at different time points in buffer. The AUC0–2.5 h for SA-2, SA-9, and SA-10 were 1592 ± 37.87, 1355 ± 42.62, and 2350 ± 69.26, respectively. (b) Comparison of the % ROS scavenging activity of SA-2, SA-9, and SA-10 with control after 15 min of treatment of pyrogallol. (c) The superoxide scavenging ratio (%) after 18 h treatment of 10 µM concentration of SA-2, SA-9, and SA-10 to NTM-5 cell supernatant using pyrogallol induced superoxide induction assay at different time points. (d) The superoxide scavenging ratio (%) of 10 µM concentration of SA-2, SA-9, and SA-10 in NTM-5 cell supernatant. The cells were previously treated with 5.5 mM of TBHP for 30 min followed by SA compounds and incubated for 18 h. Control is untreated cells. Three technical replicates were used for each experiment and all experiments were repeated 2 times. * p < 0.05, ** p < 0.005, *** p < 0.001, **** p < 0.0001, One-way ANOVA for (b), and two-way ANOVA for (c,d).
Figure S1: Superoxide scavenging ability of SA compounds in buffer and cells. a) The % of superoxide scavenging response from different concentrations of SA-2, SA-9 and SA-10 in pyrogallol (1 µM, 10 µM, 100 µM and 1,000 µM) induced superoxide induction assay at 15 minutes time point in buffer solution. The […]
superoxide scavenging ratio (%) after 18h treatment of different concentrations (0.1 µM, 1 µM, 10 µM, 100 µM and 1,000 µM) of SA-2, SA-9 and SA-10 to NTM-5 cell supernatant with or without TBHP (5.5 mM) using pyrogallol induced superoxide induction assay at 3h time point. Control is untreated cells. The cells were previously treated with 5.5 mM of TBHP for 30 minutes followed by SA compounds and TBHP and incubated for 18h. Control is untreated cells. e) The AUC0-3h for SA-2, SA-9 and SA-10 were 18902 ± 2714, […]
for each experiment and all experiments were repeated 2 times. N = 3.
(1 picture or pasted object on this page, not shown here)

Data set [4] is described as follows: Hypochlorous acid (HOCl) radical scavenging assay (TNB) in buffer. Type of data set: biochemical. As to the method: This assay used the redox reaction between 5-thio-2-nitrobenzoic acid (TNB) and HOCl to form dithio-TNB. Using the method described previously, we assessed the % TNB remaining with or without treatment with SA compounds. Compounds SA-2, SA-9, and SA-10 were used in concentrations ranging from 0.1 µM, 1 µM, 10 µM, 100 µM, and 1000 µM. Lipoic acid (1 mM) was used as positive control.

For data set [5], the system named is NTM-5 cells. Description: In vitro peroxynitrite measurement assay. The settings on record: 0.1 µM and 1 mM, with or without TBHP 350 µM. Type of data set: cell-based, human. How it is done: Human transformed trabecular meshwork (NTM-5) cells (20,000 cells/well/90 µL) were seeded in 96-well plates (Griener bio-one black plate) and stained with 10 µL of 10X Peroxynitrite Sensor Green solution for 1 h. […] SIN-1 was used as a positive control. Detection of peroxynitrite was done using Peroxynitrite Assay Kit (abcam-ab233468-cell based). Fluorescence signals were measured using a microplate reader (Cytation5) at Ex/Em = 485/530 nm at time intervals (15 min, 30 min, 1 h, 2 h, and 3 h). The experiments were done in duplicates.

Data set [6] can be described thus: Total nitrite/NO release by Griess assay in buffer (aqueous stability). Type of data set: physicochemical. The settings on record: even after 3 days. As to the method:
as §2, with “UV Absorbances (Cytation 5) were measured at specific timepoints (0, 5 min, 10 min, 15 min, 30 min, 24 h, and 28 h) at 520 nm.” left out

The test system of data set [7] is NTM-5 cells. Description: In vitro cell viability (MTT) assay. The following applies: for cytotoxicity: NTM-5 cells, 24 h, up to 1000 µM.
Experimental: NTM-5 cells (6000 cells/well) were seeded in 96-well plates to confluency. […] The cell viability and proliferation were measured using MTT assays (CellTiter 96® AQueous One Solution Cell Proliferation Assay, Promega Madison, WI, USA) following manufacturer instruction. The experiments were repeated twice with four technical replicates.
Data set [8] relates to NTM-5 cells. Description: In vitro cytoprotection assay against TBHP (MTT). Type of data set: cell-based. The settings on record: Homo sapiens, TBHP 350 µM, read-out: EC50 of increase in cell viability (cytoprotection). As to the method:
After 24 h of treatment, cell proliferation was measured using MTT assay. All the experiments are done in duplicate with four experimental replicates.

Data set [9] relates to intraocular pressure. Description: IOP lowering in dexamethasone induced ocular hypertensive (OHT) mouse eyes. Type of data set: in vivo. The following applies: periocular once every week for 4 weeks, baseline 11.85 ± 2.27. As to the method: Mice (C57BL/6J, 12 weeks, n = 3–5) were anesthetized and the periocular injection of dexamethasone acetate (DEX-Ac, 10 mg/mL) or vehicle (20 μL) was administered immediately under the isoflurane over the course of 10 to 15 s. The procedure was performed in both eyes of each mice after it was numbed with proparacaine as reported previously. Mice were treated with DEX-Ac or vehicle once per week for four weeks to achieve the desired IOP elevation. Baseline IOP was measured using tonometer. […] The entire dosing schedule was repeated 3 times in each mouse eye. IOP plots were generated from IOP values obtained from the treated eyes.

Data set [10] deals with intraocular pressure. Also noted: method as in private communication, unpublished result. The following applies: monkey eyes; ref private communication, unpublished result; cited from earlier work.
Details of data set [11]: method as in PMID 26832784. The following applies: PBS 7.4; cited from earlier work.
The test system of data set [12] is intraocular pressure. Also noted: method as in PMID 8675417. The following applies: rabbit eyes, 20 mM, intraocular injection; cited from earlier work.

Take `Cl.[NH-]c1c[n+](C2CCS(=O)(=O)CC2)no1` [SA-10, (3-(1,1-dioxidotetrahydro-2H-thiopyran-4-yl)-1,2,3-oxadiazol-3-ium-5-yl) amide hydrochloride]: in data set [1] (buffer), the “AUC0–2.5 h of % superoxide scavenging response” value is reported as 2350 ± 69.26, the superoxide radicals scavenged is given as 16–40% and the “AUC0-15 of % superoxide scavenging response” value amounted to 20433± 3128. Also, the “fold more potent than SA-2 in superoxide scavenging” value in data set [1] (1 mM, buffer, 15 min after pyrogallol) turned out to be 2.5 fold. The “earliest time of superoxide (O2−) radical scavenging” value in data set [1] is 7 min. For the same compound, in the data set with NTM-5 cells [2], the “NO released in NTM-5 cell supernatants” value is recorded as “dose dependently” and the “start of NO release” value is over 24 h. Also, the “superoxide scavenging ability (ratio)” value in the data set with NTM-5 cells [3] (10 µM for 18 h, NTM-5 cells insulted with TBHP, TBHP alone 2.5%) is on record as 20–25%. For the same compound, in the data set on NTM-5 cells [3] (10 µM for 18 h, TBHP-treated NTM-5 cells), the “fold prevention of the decrease in superoxide scavenging ability vs TBHP alone” value is ~ 10 fold. Besides, the “AUC0-3h of superoxide scavenging ratio” value with NTM-5 cells [3] (with TBHP 5.5 mM) is on record as 17893 ± 2714. Moreover, in the data set on NTM-5 cells [3] (without TBHP), the “AUC0-3h of superoxide scavenging ratio” value was 21444 ± 1877. Moreover, the “fold more potent than lipoic acid in HOCl scavenging” value in [4] (0.1 µM vs. 1 mM lipoic acid, 30 min) is given as 10,000 fold. The “duration of HOCl scavenging effect” value in data set [4] (0.1 µM–1000 µM in buffer) is over 1 h. Further, the “ONOO− radical formation” value with NTM-5 cells [5] is “not as efficacious as SA-9”. Also, the “NO release in buffer” value in data set [6] is on record as “did not observe any NO release”. Also, the cytotoxicity result with NTM-5 cells [7] is “no cytotoxicity”. The EC50 in the data set with NTM-5 cells [8] amounted to 0.0103 µM.

For `CC(=O)OCC(=O)[C@@]1(O)[C@H](C)C[C@H]2[C@@H]3CCC4=CC(=O)C=C[C@]4(C)[C@@]3(F)[C@@H](O)C[C@@]21C` [Dexamethasone, dexamethasone acetate], the “IOP after dexamethasone injection” value with intraocular pressure [9] came out at 21.9 ± 5.92 mm/Hg.

On to `CCOC(=O)[N-]c1cn(N2CCOCC2)n[o+]1` [Molsidomine, molsidomine], for which, in the data set on intraocular pressure [10], the “NO release profile or IOP lowering activity” value is given as “no NO release profile or IOP lowering activity”.

For the compound `CC1(C)CC([n+]2cc([NH-])on2)CC(C)(C)N1O` [SA-2, reference compound], the “half-life in PBS7.4” value in [11] is under 1 h. In [1] (buffer), the “AUC0–2.5 h of % superoxide scavenging response” value amounted to 1592 ± 37.87, the superoxide radicals scavenged is reported as 16–40% and the “AUC0-15 of % superoxide scavenging response” value was determined as 11604± 815.9. The “earliest time of superoxide (O2−) radical scavenging” value in data set [1] is recorded as 7 min. Further, in the data set on NTM-5 cells [2], the “NO released in NTM-5 cell supernatants” value is on record as “dose dependently” and the “start of NO release” value is over 24 h. Also, the “AUC0-3h of superoxide scavenging ratio” value with NTM-5 cells [3] (with TBHP 5.5 mM) was 18285 ± 3960. The “AUC0-3h of superoxide scavenging ratio” value in the data set on NTM-5 cells [3] (without TBHP) is recorded as 18902 ± 2714. In the data set on NTM-5 cells [5], the “ONOO− radical formation” value is “produced less”. Also, in the data set with NTM-5 cells [7], the cytotoxicity entry is on record as “no cytotoxicity”. Moreover, in the data set with NTM-5 cells [8], the EC50 is 5.2 µM.

For the compound `[NH-]c1c[n+](N2CCOCC2)no1` [SIN-1, linsidomine, reference compound], the “duration of IOP reduction” value in the data set on intraocular pressure [12] was “up to 3 h”. The “ONOO− radical formation” value with NTM-5 cells [5] was “significantly higher level”.

Consider `CC(C)(C)OO` [TBHP, t-butyl hydrogen peroxide, reference compound], for which the EC50 with NTM-5 cells [7] (Homo sapiens, read-out: half-maximal effective concentration (EC50) dose of TBHP) was 350 µM.
